What follows are compounds tested against Histamine H4 receptor (Rattus norvegicus, UniProt Q91ZY1) (assay: Agonist activity at rat histamine H4 receptor expressed in HEK293 cells coexpressing Gqi5 protein assessed as calcium flux by FLIPR assay). Details: not given.
Assay type: functional, cell-based

Chain of Histamine H4 receptor (Rattus norvegicus, UniProt Q91ZY1) (Q91ZY1 whole entry): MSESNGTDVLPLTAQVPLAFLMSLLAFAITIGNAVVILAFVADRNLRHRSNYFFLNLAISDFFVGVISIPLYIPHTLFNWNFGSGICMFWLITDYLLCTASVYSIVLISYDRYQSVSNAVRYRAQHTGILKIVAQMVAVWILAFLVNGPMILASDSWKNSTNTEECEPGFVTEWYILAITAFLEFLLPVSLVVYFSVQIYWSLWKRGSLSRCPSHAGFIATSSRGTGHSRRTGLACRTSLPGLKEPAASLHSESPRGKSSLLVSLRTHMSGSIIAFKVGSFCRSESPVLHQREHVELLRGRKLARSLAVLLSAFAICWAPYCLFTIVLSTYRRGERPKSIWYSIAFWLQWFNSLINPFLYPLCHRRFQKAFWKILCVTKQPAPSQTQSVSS

| EC50 [nM] | Structure (SMILES) |
| --- | --- |
| 42.7 | Cc1cccc(-c2cc(N3CCN(C)CC3)nc(N)n2)c1 |
| 8910 | CN1CCN(c2cc(Sc3ccccc3)nc(N)n2)CC1 |
| 174 | CN1CCN(c2cc(-c3ccc4ccccc4c3)nc(N)n2)CC1 |
| 3240 | COc1ncc(-c2cc(N3CCN(C)CC3)nc(N)n2)cn1 |
| 1350 | CN1CCN(c2cc(N3CCN(C)CC3)nc(N)n2)CC1 |
| 39.8 | CN1CCN(c2cc(-c3ccccc3)nc(N)n2)CC1 |
| 178 | Cc1ccccc1-c1cc(N2CCN(C)CC2)nc(N)n1 |
| 117 | CN1CCN(c2cc(Nc3ccccc3)nc(N)n2)CC1 |
| 1860 | CN1CCN(c2cc(N)nc(-c3ccc(C#N)cc3)c2)CC1 |
| 46.8 | CN1CCN(c2cc(N3CCCCC3)nc(N)n2)CC1 |
| 302 | CN(C)CCOc1cc(C(C)(C)C)nc(N)n1 |
| 58.9 | Cc1c(-c2ccc(C#N)cc2)nc(N)nc1N1CCN(C)CC1 |
| 234 | COc1ccncc1-c1cc(N2CCN(C)CC2)nc(N)n1 |
| 5130 | COc1c(-c2ccc(C#N)cc2)nc(N)nc1N1CCN(C)CC1 |
| 2290 | CC(C)(C)c1cc(N2CCNCC2)nc(-n2cccc2)n1 |
| 1200 | CN1CCN(c2cc(-c3ccccc3C#N)nc(N)n2)CC1 |
| 209 | CN1CCN(c2cc(-c3cccnc3)nc(N)n2)CC1 |
| 1780 | CN(C)CCNc1cc(C(C)(C)C)nc(N)n1 |
| 229 | CN1CCN(c2cc(-c3ccncc3)nc(N)n2)CC1 |
| 891 | CN1CCN(c2cc(-c3cccc(I)c3)nc(N)n2)CC1 |

| Structure (SMILES) | EC50 [nM] |
| --- | --- |
| Cc1cc(N2CCN(C)CC2)nc(N)n1 | 363 |
| CCN1CCN(c2cc(C(C)(C)C)nc(N)n2)CC1 | 245 |
| CN1CCN(c2nc(N)cc(C(C)(C)C)n2)CC1 | 7940 |
| CN1CCN(c2cc(N)nc(N)n2)CC1 | 219 |
| CNc1cc(N2CCN(C)CC2)nc(N)n1 | 490 |
| CN1CCN(c2cc(N(C)C)nc(N)n2)CC1 | 3020 |
| Cc1cnc(N)nc1N1CCN(C)CC1 | 66.1 |
| CN1CCN(c2cc(C(C)(C)C)nc(O)n2)CC1 | 22900 |
| COc1cc(N2CCN(C)CC2)nc(N)n1 | 10500 |
| CN1CCN(c2cc(Cl)nc(N)n2)CC1 | 17000 |

Each compound was assayed against Histamine H4 receptor (Rattus norvegicus) (UniProt Q91ZY1) (assay: Agonist activity at rat histamine H4 receptor expressed in HEK293 cells coexpressing Gqi5 protein assessed as calcium flux by FLIPR assay relative to histamine). Details: not given.
Chain of Histamine H4 receptor (Rattus norvegicus) (Q91ZY1 whole entry): as above
Assay type: functional, cell-based

| Efficacy [%] | Structure (SMILES) |
| --- | --- |
| 59 | Cc1cccc(-c2cc(N3CCN(C)CC3)nc(N)n2)c1 |
| 68 | CN1CCN(c2cc(Sc3ccccc3)nc(N)n2)CC1 |
| 41 | CN1CCN(c2cc(-c3ccc4ccccc4c3)nc(N)n2)CC1 |
| 53 | COc1ncc(-c2cc(N3CCN(C)CC3)nc(N)n2)cn1 |
| 68 | CN1CCN(c2cc(N3CCN(C)CC3)nc(N)n2)CC1 |
| 60 | Cc1ccccc1-c1cc(N2CCN(C)CC2)nc(N)n1 |
| 81 | CN1CCN(c2cc(Nc3ccccc3)nc(N)n2)CC1 |
| 84 | CN1CCN(c2cc(N)nc(-c3ccc(C#N)cc3)c2)CC1 |
| 73 | CN1CCN(c2cc(N3CCCCC3)nc(N)n2)CC1 |
| 67 | CN(C)CCOc1cc(C(C)(C)C)nc(N)n1 |
| 63 | Cc1c(-c2ccc(C#N)cc2)nc(N)nc1N1CCN(C)CC1 |
| 76 | COc1ccncc1-c1cc(N2CCN(C)CC2)nc(N)n1 |
| 51 | COc1c(-c2ccc(C#N)cc2)nc(N)nc1N1CCN(C)CC1 |
| 84 | CC(C)(C)c1cc(N2CCNCC2)nc(-n2cccc2)n1 |
| 73 | CN1CCN(c2cc(-c3ccccc3C#N)nc(N)n2)CC1 |
| 70 | CN1CCN(c2cc(-c3cccnc3)nc(N)n2)CC1 |
| 39 | CN(C)CCNc1cc(C(C)(C)C)nc(N)n1 |
| 63 | CN1CCN(c2cc(-c3ccncc3)nc(N)n2)CC1 |
| 61 | CN1CCN(c2cc(-c3cccc(I)c3)nc(N)n2)CC1 |

| Structure (SMILES) | Efficacy [%] |
| --- | --- |
| Cc1cc(N2CCN(C)CC2)nc(N)n1 | 77 |
| CCN1CCN(c2cc(C(C)(C)C)nc(N)n2)CC1 | 55 |
| CN1CCN(c2nc(N)cc(C(C)(C)C)n2)CC1 | 82 |
| CN1CCN(c2cc(N)nc(N)n2)CC1 | 71 |
| CNc1cc(N2CCN(C)CC2)nc(N)n1 | 93 |
| CN1CCN(c2cc(N(C)C)nc(N)n2)CC1 | 59 |
| Cc1cnc(N)nc1N1CCN(C)CC1 | 81 |
| CN1CCN(c2cc(C(C)(C)C)nc(O)n2)CC1 | 35 |
| COc1cc(N2CCN(C)CC2)nc(N)n1 | 55 |
| CN1CCN(c2cc(Cl)nc(N)n2)CC1 | 65 |

Each compound was assayed against Histamine H4 receptor (Homo sapiens, UniProt Q9H3N8). Details: HEK293.

| pKb | Structure (SMILES) |
| --- | --- |
| 8.62 | Cc1cccc(-c2cc(N3CCN(C)CC3)nc(N)n2)c1 |
| 5.99 | CN1CCN(c2cc(Sc3ccccc3)nc(N)n2)CC1 |
| 7.02 | CN1CCN(c2cc(-c3ccc4ccccc4c3)nc(N)n2)CC1 |
| 5.91 | COc1ncc(-c2cc(N3CCN(C)CC3)nc(N)n2)cn1 |
| 6.84 | CN1CCN(c2cc(N3CCN(C)CC3)nc(N)n2)CC1 |
| 8.39 | CN1CCN(c2cc(-c3ccccc3)nc(N)n2)CC1 |
| 8.07 | Cc1ccccc1-c1cc(N2CCN(C)CC2)nc(N)n1 |
| 8.18 | CN1CCN(c2cc(Nc3ccccc3)nc(N)n2)CC1 |
| 6.86 | CN1CCN(c2cc(N)nc(-c3ccc(C#N)cc3)c2)CC1 |
| 8.05 | CN1CCN(c2cc(N3CCCCC3)nc(N)n2)CC1 |
| 7.02 | CN(C)CCOc1cc(C(C)(C)C)nc(N)n1 |
| 7.36 | Cc1c(-c2ccc(C#N)cc2)nc(N)nc1N1CCN(C)CC1 |
| 7.39 | COc1ccncc1-c1cc(N2CCN(C)CC2)nc(N)n1 |
| 6.04 | COc1c(-c2ccc(C#N)cc2)nc(N)nc1N1CCN(C)CC1 |
| 6.75 | CC(C)(C)c1cc(N2CCNCC2)nc(-n2cccc2)n1 |
| 6.75 | CN1CCN(c2cc(-c3ccccc3C#N)nc(N)n2)CC1 |
| 7.3 | CN1CCN(c2cc(-c3cccnc3)nc(N)n2)CC1 |
| 6.91 | CN(C)CCNc1cc(C(C)(C)C)nc(N)n1 |
| 7.38 | CN1CCN(c2cc(-c3ccncc3)nc(N)n2)CC1 |
| 8.27 | CN1CCN(c2cc(-c3cccc(I)c3)nc(N)n2)CC1 |

| Structure (SMILES) | pKb |
| --- | --- |
| Cc1cc(N2CCN(C)CC2)nc(N)n1 | 7.2 |
| CCN1CCN(c2cc(C(C)(C)C)nc(N)n2)CC1 | 7.86 |
| CN1CCN(c2nc(N)cc(C(C)(C)C)n2)CC1 | 5.82 |
| CN1CCN(c2cc(N)nc(N)n2)CC1 | 6.37 |
| CNc1cc(N2CCN(C)CC2)nc(N)n1 | 8.28 |
| CN1CCN(c2cc(N(C)C)nc(N)n2)CC1 | 6.85 |
| Cc1cnc(N)nc1N1CCN(C)CC1 | 7.07 |
| CN1CCN(c2cc(C(C)(C)C)nc(O)n2)CC1 | 4.39 |
| COc1cc(N2CCN(C)CC2)nc(N)n1 | 5.53 |
| CN1CCN(c2cc(Cl)nc(N)n2)CC1 | 4.75 |
